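Protocol summary: plate cells (96-well), add compound at 5 concentrations, incubate 48 h, interpolate endpoints linearly. Abbreviation: GI50, concentration required for 50% inhibition of growth.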 The source made the active and inactive calls. No stated cut-off is given here; in the data, active = GI50 up to about 1.1 µM and inactive = higher.
Assays:
Experiment in all cases: NCI anticancer screen, dose series, 48 h
CCRF-CEM = test system: CCRF-CEM
SW-620 = test system: SW-620
OVCAR-3 = test system: OVCAR-3
SNB-19 = test system: SNB-19
SK-MEL-2 = test system: SK-MEL-2
Malme-3M = test system: Malme-3M
NCI-H460 = test system: NCI-H460
CAKI-1 = test system: CAKI-1
LOX IMVI = test system: LOX IMVI
TK-10 = test system: TK-10
HCC 2998 = test system: HCC 2998
MOLT-4 = test system: MOLT-4
NCI-H522 = test system: NCI-H522
SF-539 = test system: SF-539
SK-MEL-5 = test system: SK-MEL-5
SNB-75 = test system: SNB-75
UACC-62 = test system: UACC-62
PC-3 = test system: PC-3
MDA-MB-231 = test system: MDA-MB-231

SMILES	GI50 (CCRF-CEM)	GI50 (SW-620)	GI50 (OVCAR-3)	GI50 (SNB-19)	GI50 (SK-MEL-2)	GI50 (Malme-3M)	GI50 (NCI-H460)	GI50 (CAKI-1)	GI50 (LOX IMVI)	GI50 (TK-10)	GI50 (HCC 2998)	GI50 (MOLT-4)	GI50 (NCI-H522)	GI50 (SF-539)	GI50 (SK-MEL-5)	GI50 (SNB-75)	GI50 (UACC-62)	GI50 (PC-3)	GI50 (MDA-MB-231)
O=c1c2cc3ccccc3n2c(=O)c2cc3ccccc3n12	> 100 µM (inactive)	> 100 µM (inactive)	> 100 µM (inactive)	> 100 µM (inactive)	> 100 µM (inactive)	> 100 µM (inactive)	> 100 µM (inactive)	> 100 µM (inactive)	> 100 µM (inactive)	> 100 µM (inactive)	> 100 µM (inactive)	> 100 µM (inactive)	> 100 µM (inactive)	> 100 µM (inactive)	> 100 µM (inactive)	> 100 µM (inactive)	> 100 µM (inactive)	–	–
CCSC1=N/C(=C\c2ccco2)C(=O)N1	> 100 µM (inactive)	> 100 µM (inactive)	> 100 µM (inactive)	70.8 µM (inactive)	> 100 µM (inactive)	> 100 µM (inactive)	–	–	> 100 µM (inactive)	> 100 µM (inactive)	–	> 100 µM (inactive)	> 100 µM (inactive)	–	> 100 µM (inactive)	> 100 µM (inactive)	> 100 µM (inactive)	> 100 µM (inactive)	> 100 µM (inactive)
CCOC(=O)/N=c1\ss/c(=N\C(=S)N(C)C)n1-c1ccccc1	29.6 µM (inactive)	> 10 µM (inactive)	0.394 µM (active)	47.2 µM (inactive)	67.8 µM (inactive)	> 10 µM (inactive)	2.7 µM (inactive)	48 µM (inactive)	> 100 µM (inactive)	63 µM (inactive)	> 10 µM (inactive)	4.27 µM (inactive)	0.235 µM (active)	40.7 µM (inactive)	2.62 µM (inactive)	6.03 µM (inactive)	72.3 µM (inactive)	–	–
Cc1nc2ccccc2c(=O)n1-c1ccccc1I	> 100 µM (inactive)	> 100 µM (inactive)	> 100 µM (inactive)	> 100 µM (inactive)	> 100 µM (inactive)	> 100 µM (inactive)	> 100 µM (inactive)	> 100 µM (inactive)	–	> 100 µM (inactive)	> 100 µM (inactive)	> 100 µM (inactive)	> 100 µM (inactive)	–	> 100 µM (inactive)	46.2 µM (inactive)	> 100 µM (inactive)	–	–
CC1=C(/C=C/C(C)=C/C=C/C(C)=C/C=C/C=C(C)/C=C/C=C(C)/C=C/C2=C(C)C(=O)C(O)CC2(C)C)C(C)(C)CC(O)C1=O (stereo not drawn)	> 100 µM (inactive)	> 100 µM (inactive)	> 100 µM (inactive)	> 100 µM (inactive)	> 100 µM (inactive)	> 100 µM (inactive)	> 100 µM (inactive)	> 100 µM (inactive)	> 100 µM (inactive)	> 100 µM (inactive)	> 100 µM (inactive)	> 100 µM (inactive)	> 100 µM (inactive)	> 100 µM (inactive)	> 100 µM (inactive)	> 100 µM (inactive)	> 100 µM (inactive)	–	–
CCO[C@@H]1C2C=CC(C2)[C@H]1[N+](=O)[O-] (stereo partly drawn)	36.9 µM (inactive)	> 100 µM (inactive)	> 100 µM (inactive)	> 100 µM (inactive)	> 100 µM (inactive)	> 100 µM (inactive)	> 100 µM (inactive)	> 100 µM (inactive)	> 100 µM (inactive)	> 100 µM (inactive)	> 100 µM (inactive)	> 100 µM (inactive)	64 µM (inactive)	> 100 µM (inactive)	> 100 µM (inactive)	64.9 µM (inactive)	> 100 µM (inactive)	–	–
c1cc(-c2cn[nH]c2)cc(-c2cn[nH]c2)c1	29.4 µM (inactive)	30.4 µM (inactive)	33.5 µM (inactive)	61.1 µM (inactive)	56 µM (inactive)	–	41.4 µM (inactive)	8.04 µM (inactive)	36.8 µM (inactive)	16.7 µM (inactive)	88.9 µM (inactive)	33.1 µM (inactive)	27.2 µM (inactive)	17.9 µM (inactive)	32.6 µM (inactive)	6.76 µM (inactive)	11.6 µM (inactive)	–	–
CC1(C)OC(=O)C(=C2CCC(C(=O)Nc3cccc(C(F)(F)F)c3)N2)C(=O)O1 (stereo not drawn)	44.8 µM (inactive)	> 100 µM (inactive)	82 µM (inactive)	41.2 µM (inactive)	> 100 µM (inactive)	50.1 µM (inactive)	62.5 µM (inactive)	9.77 µM (inactive)	60.4 µM (inactive)	86.9 µM (inactive)	43.7 µM (inactive)	26.7 µM (inactive)	39.8 µM (inactive)	> 100 µM (inactive)	30.1 µM (inactive)	> 100 µM (inactive)	45.2 µM (inactive)	–	–
Cc1cc(N(CCC#N)S(C)(=O)=O)ccc1C=O	> 100 µM (inactive)	> 100 µM (inactive)	> 100 µM (inactive)	> 100 µM (inactive)	> 100 µM (inactive)	> 100 µM (inactive)	> 100 µM (inactive)	> 100 µM (inactive)	> 100 µM (inactive)	–	> 100 µM (inactive)	> 100 µM (inactive)	> 100 µM (inactive)	> 100 µM (inactive)	> 100 µM (inactive)	> 100 µM (inactive)	> 100 µM (inactive)	–	–
O=c1c(/C=C/c2c(O)ccc3ccccc23)nnc2sc(-c3cccc([N+](=O)[O-])c3)nn12	–	3.03 µM (inactive)	2.73 µM (inactive)	–	5.57 µM (inactive)	11.4 µM (inactive)	–	19.1 µM (inactive)	6.56 µM (inactive)	9.29 µM (inactive)	–	3.94 µM (inactive)	9.33 µM (inactive)	–	–	–	11.4 µM (inactive)	10.1 µM (inactive)	7.33 µM (inactive)
COc1ccc(CC(C)N)cc1 (stereo not drawn) [PARA-METHOXYAMPHETAMINE]	> 100 µM (inactive)	> 100 µM (inactive)	> 100 µM (inactive)	> 100 µM (inactive)	> 100 µM (inactive)	> 100 µM (inactive)	> 100 µM (inactive)	> 100 µM (inactive)	> 100 µM (inactive)	> 100 µM (inactive)	> 100 µM (inactive)	> 100 µM (inactive)	> 100 µM (inactive)	> 100 µM (inactive)	> 100 µM (inactive)	> 100 µM (inactive)	> 100 µM (inactive)	–	–
O=C1CC(c2cccc([N+](=O)[O-])c2)C2(C(=O)NC(=O)NC2=O)C(c2cccc([N+](=O)[O-])c2)C1 (stereo not drawn)	32.9 µM (inactive)	> 100 µM (inactive)	13.9 µM (inactive)	> 100 µM (inactive)	> 100 µM (inactive)	0.783 µM (active)	> 100 µM (inactive)	–	36.8 µM (inactive)	–	–	> 100 µM (inactive)	78.2 µM (inactive)	> 100 µM (inactive)	> 100 µM (inactive)	> 100 µM (inactive)	98.4 µM (inactive)	69.7 µM (inactive)	> 100 µM (inactive)
C=C1C(=O)CC2C(=O)C(C)(O)CC/C=C(\C)C(=O)CC12 (stereo not drawn)	4.23 µM (inactive)	6.37 µM (inactive)	17 µM (inactive)	> 91.4 µM (inactive)	28.8 µM (inactive)	11.7 µM (inactive)	> 100 µM (inactive)	3.17 µM (inactive)	16.3 µM (inactive)	12.7 µM (inactive)	> 100 µM (inactive)	4.14 µM (inactive)	3.19 µM (inactive)	18.2 µM (inactive)	14.7 µM (inactive)	> 41.9 µM (inactive)	30.3 µM (inactive)	24.7 µM (inactive)	26.7 µM (inactive)
CCN(CC)c1ccc(C(=C2C=CC(=[N+](CC)CC)C=C2)c2ccccc2)cc1	0.0121 µM (active)	0.0291 µM (active)	–	0.043 µM (active)	0.0279 µM (active)	0.0304 µM (active)	0.0231 µM (active)	0.164 µM (active)	0.0219 µM (active)	–	0.0351 µM (active)	0.0151 µM (active)	0.0177 µM (active)	0.0462 µM (active)	0.0166 µM (active)	0.0586 µM (active)	0.0451 µM (active)	–	–
CS(=O)(=O)N(CCC#N)c1ccc(/C=C2\N=C(c3ccccc3Cl)OC2=O)cc1	> 100 µM (inactive)	> 100 µM (inactive)	> 100 µM (inactive)	> 100 µM (inactive)	> 100 µM (inactive)	> 100 µM (inactive)	> 100 µM (inactive)	> 100 µM (inactive)	> 100 µM (inactive)	> 100 µM (inactive)	> 100 µM (inactive)	> 100 µM (inactive)	> 100 µM (inactive)	> 100 µM (inactive)	> 100 µM (inactive)	> 100 µM (inactive)	> 100 µM (inactive)	–	–
CC(=O)CCC(=O)C(=[N+]=[N-])S(=O)(=O)c1ccccc1	> 100 µM (inactive)	> 100 µM (inactive)	> 100 µM (inactive)	> 100 µM (inactive)	> 100 µM (inactive)	> 100 µM (inactive)	> 100 µM (inactive)	–	> 100 µM (inactive)	> 100 µM (inactive)	> 100 µM (inactive)	> 100 µM (inactive)	45.8 µM (inactive)	> 100 µM (inactive)	> 100 µM (inactive)	> 100 µM (inactive)	> 100 µM (inactive)	> 100 µM (inactive)	> 100 µM (inactive)
COc1ccc(/C=N/N=C(\N)NO)cc1F	33.7 µM (inactive)	41.2 µM (inactive)	53 µM (inactive)	37.6 µM (inactive)	13.3 µM (inactive)	31 µM (inactive)	11.9 µM (inactive)	14.5 µM (inactive)	10.4 µM (inactive)	43 µM (inactive)	11.4 µM (inactive)	31.1 µM (inactive)	22.1 µM (inactive)	21.9 µM (inactive)	5.02 µM (inactive)	27.4 µM (inactive)	12.9 µM (inactive)	–	–

Reference: ChEMBL document CHEMBL1201862, “PubChem BioAssay data set” (2004)
